According to patent USRE34165E, “Potent thymopentin analogs” (Ortho Pharmaceutical Corporation, priority 1990, dated 1993):
Read-outs that look alike come from different tables or passages of the source. Non-standard residues stand in square brackets, D forms with d. Residues, ends and D or L forms follow the SMILES beside them. No end group written: not given here. Aib = CC(C)(N)C(=O)O

Legend:
[1] = system: cell membrane receptor of the intact CEM cell; test: Cyclic-GMP assay: induction of cyclic-GMP production in intact CEM cells; type: cell-based, human; conditions: for Concentration of c-GMP Produced: 4-5 min at 37° C.; for Result on the cyclic-GMP assay (in words): in comparison with thymopentin
Description: This biological activity is evidenced by an assay measuring induction of cyclic-GMP production in a human T-cell line in comparison with thymopoietin. The induction of c-GMP production by a test peptide in this assay indicates the ability of the test peptide to bind to the thymopoietin receptor site on the cell and induce thymopoietin-like biological activity. […] Because of the expense of preparing peptides and the rapid degradation of peptides often observed in living systems, peptides such as those herein which have increased potency are greatly prized.
This assay measures the ability of the test peptide to bind to the cell membrane receptor of the intact CEM cell and selectively stimulate production of cyclic-GMP, as does thymopoietin itself.
The CEM cell line was obtained from the American Type Culture Collection and was cultured in RPMI-1640 medium supplemented with 10% heat-inactivated fetal bovine serum, 10% heat-inactivated horse serum, 2 mM L-glutamine, and 50 µg/ml gentamycin at 37° C. in a humid atmosphere containing 5 percent CO2, to a final density of 3-4×10^6 cells/ml. At this concentration, the cells were in the early stationary phase of the growth curve and were judged greater than 90% viable by trypan blue exclusion. The cells were grown for four days and harvested. After harvesting, the cells were washed three times in PBS and were resuspended in RPMI-1640 medium at a concentration of 3.12×10^7 cells/ml. After the cells had been allowed to equilibrate at 37° C. for 30 min, various concentrations of the test peptides were added in a volume of 25 μl of medium to 1 ml of cells, the initial concentration of test compound added being selected to yield the desired final concentration of test peptide in the medium. The test peptide was mixed instantly with the cell suspension. The incubation was allowed to proceed in a shaking water bath at 37° C. for 4-5 min and was then terminated by addition of ice-cold trichloroacetic acid (10%; 1 ml).
The cells in TCA were then homogenized and sonicated to release cyclic nucleotide. The resulting suspension was centrifuged at 3000 g for 20 min at 4° C. and the resulting precipitate was dissolved in 0.1N NaOH and sonicated for a further 30 minutes, after which the protein content was determined by the method of Cadman, et al., Anal. Biochem., 96, 21-23 (1979). The TCA was removed from the supernatant fraction by extracting four times with 5 ml of water-saturated diethyl ether. After the final extraction, the remaining traces of ether were removed from the supernatant fraction by heating it for 10 min in a 50° C. water bath. After lyophilization of the extracted supernatant fraction, it was reconstituted in 50 mM acetate buffer, ph 6.2, for radioimmunoassay of cyclic nucleotide using the assay kit NEX-133, New England Nuclear, Boston, Mass. 02113.
A conventional competition radioimmunoassay against radio labelled cyclic GMP was conducted to determine the amount of cyclic GMP induced by each concentration of test peptide. Results are shown in FIG. 1 and in the following table, in which representative subject peptides have been assayed in comparison with thymopentin (designated "TP-5") and a "nonsense" peptide H-ASP-ARG-TYR-LYS-VAL-OH.

[2] = system: isolated thymopoietin cell surface receptor protein from CEM cells; conditions: for Displacement of 125I-TP (in words): comparison peptides
[3] = Concentration of Peptide 10^0 μg/ml
[4] = Concentration of Peptide 10^1 μg/ml
[5] = at equivalent concentrations, with thymopoietin 37-45 nonapeptide, 12 h incubation
[6] = Concentration of Peptide 10^3 μg/ml
[7] = Concentration of Peptide 10^4 μg/ml

Compound: CC(C)[C@H](NC(=O)[C@H](CC(=O)O)NC(=O)[C@H](CCCCN)NC(=O)[C@@H](N)CCCNC(=N)N)C(=O)N[C@@H](Cc1c[nH]cn1)C(=O)O [H--ARG--LYS--ASP--VAL--HIS--OH, Arginyl-Lysyl-Aspartyl-Valyl-Histidine] (H-RKDVH-OH)
- Concentration of c-GMP Produced [1, 3]: 0 picomoles/ml
- Concentration of c-GMP Produced [1, 4]: 9 picomoles/ml
- Displacement of 125I-TP relative to that caused by thymopoietin self-displacement [2, 5]: at least 50%

Compound: CC(C)[C@H](NC(=O)[C@H](CC(=O)O)NC(=O)[C@H](CCCCN)NC(=O)[C@@H](N)CCCNC(=N)N)C(=O)N[C@@H](Cc1ccccc1)C(=O)O [H--ARG--LYS--ASP--VAL--PHE--OH, Arginyl-Lysyl-Aspartyl-Valyl-Phenylalanine] (H-RKDVF-OH)
- Concentration of c-GMP Produced [1, 3]: 6 picomoles/ml
- Concentration of c-GMP Produced [1, 4]: 9 picomoles/ml
- Displacement of 125I-TP relative to that caused by thymopoietin self-displacement [2, 5]: at least 50%

Compound: CC(C)[C@H](NC(=O)[C@H](CC(=O)O)NC(=O)[C@@H]1CCCN1C(=O)[C@@H](N)CCCNC(=N)N)C(=O)N[C@@H](Cc1ccccc1)C(=O)O [H--ARG--PRO--ASP--VAL--PHE--OH, Arginyl-Prolyl-Aspartyl-Valyl-Phenylalanine] (H-RPDVF-OH)
- Concentration of c-GMP Produced [1, 3]: 0 picomoles/ml
- Concentration of c-GMP Produced [1, 4]: 12 picomoles/ml
- Displacement of 125I-TP relative to that caused by thymopoietin self-displacement [2, 5]: at least 50%

Compound: CC(C)[C@H](NC(=O)[C@H](CCCCN)NC(=O)[C@H](Cc1ccc(O)cc1)NC(=O)[C@H](CCCNC(=N)N)NC(=O)[C@@H](N)CC(=O)O)C(=O)O [H--ASP--ARG--TYR--LYS--VAL--OH, H-ASP-ARG-TYR-LYS-VAL-OH, reference compound] (H-DRYKV-OH)
- Concentration of c-GMP Produced [1, 6]: 0 picomoles/ml
- Concentration of c-GMP Produced [1, 7]: 0 picomoles/ml
- Concentration of c-GMP Produced ([1]; Concentration of Peptide 10^5 μg/ml): 0 picomoles/ml

Compound: CC(C)[C@H](NC(=O)[C@H](CC(=O)O)NC(=O)[C@H](CCCCN)NC(=O)[C@@H](N)CCCNC(=N)N)C(=O)N[C@@H](Cc1c[nH]c2ccccc12)C(N)=O [H-ARG-LYS-ASP-VAL-TRP-NH2, Arginyl-Lysyl-Aspartyl-Valyl-Tryptophan amide] (H-RKDVW-NH2)
- Result on the cyclic-GMP assay (in words) [1]: superior results
- Displacement of 125I-TP relative to that caused by thymopoietin self-displacement [2, 5]: at least 50%

Compound: CC(C)[C@H](NC(=O)[C@H](CC(=O)O)NC(=O)[C@H](CCCCN)NC(=O)[C@@H](N)CCCNC(=N)N)C(=O)N[C@@H](Cc1c[nH]c2ccccc12)C(=O)O [H-ARG-LYS-ASP-VAL-TRP-OH, Arginyl-Lysyl-Aspartyl-Valyl-Tryptophan] (H-RKDVW-OH)
- Result on the cyclic-GMP assay (in words) [1]: superior results
- Displacement of 125I-TP relative to that caused by thymopoietin self-displacement [2, 5]: at least 50%

Compound: CC(=O)N[C@@H](CCCNC(=N)N)C(=O)NC(C)(C)C(=O)N[C@@H](CC(=O)O)C(=O)N[C@H](C(=O)N[C@@H](Cc1ccccc1)C(N)=O)C(C)C [N-α-acetyl-ARG-AIB-ASP-VAL-PHE-NH2, Acetyl-Arginyl-α-Aminoisobutyryl-Aspartyl-Valyl-Phenylalaminamide] (Ac-R[Aib]DVF-NH2)
- Result on the cyclic-GMP assay (in words) [1]: superior results

Compound: CC(=O)N[C@@H](CCCNC(=N)N)C(=O)N1CCC[C@H]1C(=O)N[C@@H](CC(=O)O)C(=O)N[C@H](C(=O)N[C@@H](Cc1ccccc1)C(N)=O)C(C)C [N-α-acetyl-ARG-PRO-ASP-VAL-PHE-NH2, Acetyl-Arginyl-Prolyl-Aspartyl-Valyl-Phenylalanineamide] (Ac-RPDVF-NH2)
- Result on the cyclic-GMP assay (in words) [1]: superior results

Compound: CC(C)[C@H](NC(=O)[C@H](CC(=O)O)NC(=O)[C@H](CCCCN)NC(=O)[C@@H](N)CCCN=C(N)N)C(=O)N[C@@H](Cc1ccc(O)cc1)C(=O)O [TP-5, thymopentin] (H-RKDVY-OH)
- Concentration of c-GMP Produced [1, 3]: 0 picomoles/ml
- Concentration of c-GMP Produced [1, 4]: 4.5 picomoles/ml
- Concentration of c-GMP Produced ([1]; Concentration of Peptide 10^2 μg/ml): 9 picomoles/ml
- Concentration of c-GMP Produced [1, 6]: 12 picomoles/ml
- Concentration of c-GMP Produced [1, 7]: 14 picomoles/ml

Compound: C[C@H](N)C(=O)NCC(=O)N[C@H]1CSSC[C@@H](C(=O)O)NC(=O)[C@H](CO)NC(=O)[C@H]([C@@H](C)O)NC(=O)[C@H](Cc2ccccc2)NC(=O)[C@H]([C@@H](C)O)NC(=O)[C@H](CCCCN)NC(=O)[C@H](Cc2c[nH]c3ccccc23)NC(=O)[C@H](Cc2ccccc2)NC(=O)[C@H](Cc2ccccc2)NC(=O)[C@H](CC(N)=O)NC(=O)[C@H](CCCCN)NC1=O [somatostatin]
- Displacement of 125I-TP (in words) [2]: no detectable displacement

Compound: CC(=O)N[C@@H](CCCNC(=N)N)C(=O)N1CCC[C@H]1C(=O)N[C@@H](CC(=O)O)C(=O)N[C@H](C(=O)N[C@@H](Cc1ccccc1)C(=O)O)C(C)C [α-acetyl-ARG--PRO--ASP--VAL--PHE--OH, N^α -Acetyl-Arginyl-Prolyl-Aspartyl-Valyl-Phenylaline] (Ac-RPDVF-OH)
- Concentration of c-GMP Produced [1, 3]: 7 picomoles/ml
- Concentration of c-GMP Produced [1, 4]: 15 picomoles/ml
- Displacement of 125I-TP relative to that caused by thymopoietin self-displacement [2]: at least 50%

Compound: N^α -Acetyl-Arginyl-3,4-dehydro-Prolyl-Aspartyl-Valyl-Tyrosineamide
- Result on the cyclic-GMP assay (in words) [1]: superior results

Compound: adrenocorticotropic hormone (SYSMEHFRWGKPVGKKRRPVKVYPNGAEDESAEAFPLEF; Corticotropin; UniProt P01189 138-176, looked up) [ACTH]
- Displacement of 125I-TP (in words) [2]: no detectable displacement

Compound: corticotropin-releasing factor (SEEPPISLDLTFHLLREVLEMARAEQLAQQAHSNRKLMEII; ends and bridges not checked; UniProt P06850 154-194, looked up) [CRF]
- Displacement of 125I-TP (in words) [2]: no detectable displacement

Compound: facteur thymique serique [FTS]
- Displacement of 125I-TP (in words) [2]: no detectable displacement

Compound: growth hormone
- Displacement of 125I-TP (in words) [2]: no detectable displacement

Compound: ubiquitin
- Displacement of 125I-TP (in words) [2]: no detectable displacement

Compound: β-endorphin (YGGFMTSEKSQTPLVTLFKNAIIKNAYKKGE; Beta-endorphin; UniProt P01189 237-267, looked up)
- Displacement of 125I-TP (in words) [2]: no detectable displacement
